Experiments:
[1] = system: acetylcholine (ACh) level in HIP tissue; test: Acetylcholine level in hippocampal tissue, Amplex Red kit (Example 9D); type: in vivo, Male Wistar rats; details: p.o. 7 days: B 50, A 50, Donepezil 3, B:A 10:50 and 50:50, Shilajit 50 mg/kg
Description: Drug solution was freshly prepared in 0.3% CMC and administered by oral gavage once a day, for a period of 7 days. Briefly, the whole experiment was conducted for 8 days. Scopolamine (1 mg/kg), a muscarinic receptor antagonist, was dissolved in normal saline (0.9% NaCl) and administered intraperitoneally 1 h after drugs administration on seventh day.
Sample preparation: The animals were killed by decapitation and the brain tissues were dissected out in ice-cold conditions and stored at −80° C. until use. Tissue was homogenized in 1.0 ml of 0.1M perchloric acid with a Potter-Elvehjem homogenizer. The homogenate was kept in the polypropylene tubes for 15 min after which 40 μl of 4M potassium acetate was added to adjust the pH to 4.0 followed by centrifugation for 15 min at 4000×g. Supernatant was used to estimate acetylcholine and AChE activities.
Samples were prepared as in Example 9C. The amount of acetylcholine in brain tissues was measured using Amplex red assay kit (Molecular Probes, Inc., USA). An acetylcholine standard curve was used in each experiment. Briefly, the reactions are initiated by adding 0.1 ml of control (10 μM H2O2) and tissue homogenates were taken in two separate polypropylene tubes and then 0.1 ml working solution of 400 μM Amplex Red reagent containing 2 U/mL HRP, 0.2 U/mL choline oxidase and 1 U/mL acetylcholinesterase were added to each tube. After incubation for 45 min, the fluorescence was recorded with the help of spectrofluorometer at 530 nm excitation and 590 nm emission wavelengths. The protein content was determined using standard protocol (Lowry, et al., 1951).
Statistical analyses: The results were expressed as means±Standard Error mean (SEM). The intergroup variation was measured by one-way ANOVA followed by Student-Newman-Keuls test. Two-way followed by Bonferroni test was employed to discover the intergroup variation in Y maze test considering groups and arms as two independent variables. Statistical analysis was done by using Graph Pad prism version 5 (San Diego, Calif.). A level of p<0.05 was accepted as statistically significant.

[2] = system: scopolamine induced dementia in rats; test: Y-maze test, scopolamine induced dementia in rats (Study 2); type: in vivo, Charles Foster male albino rats; details: Donepezil 5 mg/kg i.p.; shilajit effect at 100 mg/kg
Description: 2.2. Animal subjects. Inbred Charles Foster male albino rats (130-180 g) were obtained from the Central Animal House, Institute of Medical Sciences (IMS), Banaras Hindu University (BHU), Varanasi, Uttar Pradesh, India. These were certified to be pathogen free and were randomly distributed into different experimental groups. The rats were kept in the departmental animal house at an ambient temperature of 25±1° C. and 45-55% RH, with a 12-h light/dark cycle (lights on 7:00-19:00 h). The animals had free access to standard pellet chow and tap water ad libitum. Experiments were conducted between 9:00 and 14:00 h. The behavioral testing was done during the light phase. Animals were housed in groups and acclimatized for at least one week before using them for experiments. Animals were transported in cage covered by dark cloth to the experimental room. The experimental procedures were in compliance with National Institutes of Health Guide for Care and Use of Laboratory Animals.
The rats were pretreated orally for seven days through an orogastric tube with experimental drugs (10, 25 and 50 mg/kg once daily) suspended in 0.3% carboxymethyl cellulose (CMC). The treatment was continued until the end of the experiment procedures (Singh, G. K., Garabadu, D., Muruganadam, A. V., Joshi, V. K., Krishnamurthy, S., “Antidepressant activity of Asparagus racemosus in animal models of depression,” Pharmacol. Biochem. Behav. (2009) 91(3):283-90). Scopolamine was dissolved in water for injection and administered on day 7 after one hour of drug treatment administration. Donepezil (5 mg/kg; i.p.)
was used as standard drug. On day 8 the behavioral experiment was performed. The animals were sacrificed and hippocampus was micro-dissected using the coordinates of the rat brain atlas. All control group animals were treated with the 0.3 ml of vehicle (0.3% CMC suspension) equal to the volume of experimental drugs (Ohj a, R., et al., “Asparagus recemosus enhances memory and protects against amnesia in rodent models,” Brain Cogn. (2010) October; 74(1): 1-9).
Spatial recognition memory, general exploratory behavior, and anxiety-like behavior were assessed by the Y-maze test. Y-maze consists of three similar arms of dimension 50 cm long, 16 cm wide and 32 cm high. In the first trial, the novel arm was blocked and the animal was allowed to move for 15 min in other two arms. In the second trial, the novel arm was opened and the animal was allowed to move for 5 min in all three arms after 4 h of the first trial. The total number of entries in all arms (for 5 min of trial-1 and trial-2) is indicative of general exploration attitude (curiosity). The % entries in known and novel arms for the 5 min period of trial 2 were considered as a measure of spatial recognition memory. Coping strategy to the novel environment was estimated by the percentage of the ratio of time spent in the novel arm to time spent in all arms and in the center of the apparatus during trial 2. The decrease in the coping behavior to the novel environment was considered as an increase in anxiety-like behavior (Krishnamurthy, S., et al., “Risperidone ameliorates post-traumatic stress disorder-like symptoms in modified stress re-stress model,” Neuropharmacology (2013) 75:62-77).

## COc1cc2c(cc1OC)C(=O)C(CC1CCN(Cc3ccccc3)CC1)C2 (centres unmarked) [Donepezil, reference compound]
[1]
  Scopolamine-induced decrease in ACh level in HIP tissue: the same as 3-OH-DBP (B) (50 mg/kg) group
[2]
  Scopolamine-induced altered exploratory behavior (total arm entries): reversed this activity

Source: patent US20200246308A1, “SYNERGISTIC COMBINATIONS OF UROLITHINS A AND B FOR IMPROVING COGNITIVE CAPACITY OR COGNITIVE FUNCTION” (Natreon, Inc., priority 2018, published 2020)
